These results are taken from patent US20240279845A1, “METHOD FOR PREPARING A LIBRARY OF PEPTIDES OR A PEPTIDE” (ECOLE POLYTECHNIQUE FEDERALE DE LAUSANNE (EPFL), priority 2021, published 2024).

Assay [1] concerns the target T1, MDM2 (Homo sapiens, UniProt Q00987). Nature of the assay: MDM2 fluorescence polarization competition assay (displacement of FP53 peptide probe). The class given is binding. Conditions: purified macrocycles, 1.2 μM MDM2; read-out: IC50 displacement of fluorescent peptide probe from MDM2. The method, then: The library was screened by dispensing to the reactions in the 384-mictrowell plates the target protein MDM2 and a reporter peptide to measure binding of the macrocycles.
One fluorescence anisotropy reading was taken with a Tecan Infinite F200 Pro fluorescence plate reader (excitation at 485 nm, emission at 535 nm) at 25° C.The percentage of probe displacement was calculated using to the following formula,
Volumes of 5 μL of purified macrocycles (20 mM in DMSO) were serial diluted two-fold in 100% DMSO in a low dead-volume ECHO source plate. Using acoustic droplet transfer, 150 nl of each dilution was transferred to a 384 well low volume polystyrene plate (Nunc, 264705). […] Fluorescence anisotropy was measured as described above. The percentage of bound inhibitor was calculated using the following equation
where N is the average anisotropy of the DMSO controls, X is the anisotropy value obtained for each well, and P is the average anisotropy of the unbound probe. The ICsos were determined by plotting the percent of bound inhibitor against the logarithm of the corresponding macrocycle concentration, and the curves were fitted in GraphPad Prism 6 as described above.
In general terms: Polarisation of emitted light reports the rotation of a fluorescent probe.

Assay [2] has as its target T1, MDM2. Put plainly: Determining Kds of MDM2 binders by SPR. The class given is binding. The note with it: unlabeled macrocycles, single cycle kinetics. The method, then:
FIG. 30. Binding of macrocycles to MDM2 measured by SPR. a, Single-cycle SPR sensorgrams for fluorescein-labeled macrocycles, positive control nutlin-3a (not fluorescein labeled), and negative controls (thrombin inhibitors; not fluorescein labeled). RU, response unit. b, Single-cycle SPR sensorgrams for macrocycles M6, M7, M8 and M10 (not fluorescein-labeled), performed in triplicate.
Experiments were performed using a GE Healthcare Biacore 8K instrument. MDM2 (10 μg/mL) was dissolved in 10 mM MES buffer (pH 6.0) and immobilized on three channels of a CM5 series S chip (Cytiva, 29104988) using EDC/NHS amine coupling conditions in running buffer (10 mM PBS pH 7.4, 150 mM NaCl, 3 mM KCI, and 0.005% v/v Tween-20). Typical immobilization level was 6,000 to 7,000 resonance units (RUs). The reference cell was treated the same way without MDM2. For the measurement of binding kinetics and dissociation constants, five serial dilutions (3-fold) of macrocycles plus a DMSO blank were prepared in running buffer (10 mM PBS PH 7.4, 150 mM NaCl, 3 mM KCl, and 0.005% v/v Tween-20, and 0.5% v/v DMSO) and analyzed in single cycle kinetics mode with contact and dissociation times of 120 seconds and 60 seconds, respectively.
For orientation: SPR reads the build-up and loss of mass on a sensor chip optically.

Assay [3] has as its target T2, thrombin (Homo sapiens, UniProt P00734).
T2 construct: two polypeptide chains of 36 (light chain) and 259 amino acid residues (heavy chain); purchased Haematologic Technologies HCT-0020
Nature of the assay: Substrate KM for protease screen, thrombin. The format is biochemical. The method, then: Crude macrocyclic libraries (4 mM DMSO stocks in 384-well LDV plates were transferred into 1536-well microtiter OptiPlates via ADE. Applied buffered solutions were prepared by filtration through PTFE syringe filters (0.22 μm) and assays were initiated by addition of protease (4.41 μl/well) in appropriate buffer (see list below) supplemented with bovine serum albumin (BSA; 0.1% w/v) and dispensed using a CERTUS automated liquid handler. Plates were incubated for 10 min at ambient temperature before fluorogenic substrate in appropriate buffer (4.5 μl) was added using a CERTUS automated liquid handler. Plates were centrifugated (800 g, 2 min) and fluorescence intensity was measured using a PHERAstar plate reader (excitation 384 nm, emission 440 nm) in time increments of 150 s over 15 min. Slopes of fluorescence increase (m) were calculated with Microsoft Excel (vers. 16.56). Negative controls were prepared without macrocycle. An average of 12 negative controls was used to calculate residual activities using Equation I below: […]
where [S]0 is the initial substrate concentration and KM is the Michaelis-Menten constant^12 for the enzyme and substrate.

Assay [4] deals with T2, thrombin. Put plainly: Thrombin inhibition screen of the 96-member disulfide-cyclized peptide library and Ki of purified hit (Example 2). The format is biochemical. The method, then:
FIG. 7. Library design, peptide recovery quantification by absorption, and thrombin inhibition of the cyclic peptide library. (a) Design of library comprising 96 different peptides and structures of unnatural amino acids used in library. (b) Scatter plot of cyclic peptide concentrations (mM in DMSO) for the 96 synthesized cyclic peptides quantified by absorption at 280 nm. […] (c) Thrombin inhibition measured at an average cyclic peptide concentration of 11 μM. The peptides are ordered according to their thrombin inhibition activity in the first screen (black dots; highest to lowest activity). Green dots indicate thrombin inhibition for the same cyclic peptides measured in a second screen using the same conditions.
Despite the relatively small number of only 96 cyclic peptides and thus small chance of finding an active compounds, we performed a screen against thrombin, an important target for developing anticoagulation therapeutics, using a compound concentration of around 10 μM. […] Biological screens are typically performed at compound concentrations of around 10 μM, which means that the 100% DMSO and 150 mM DIPEA in the around 10 mM peptide stocks get 1000-fold diluted to reach concentrations of 0.1% and 150 μM, respectively, that unlikely affect most biological assays.

Assay [5] has as its target T1, MDM2. Nature of the assay: Competition binding experiment of fluorescein-labeled M10 with nutlin-3a on MDM2. Conditions: fluorescence polarization. The method, then: We subsequently performed a third cycle of library synthesis and screening, where we acylated the nine most promising scaffolds of the previous screens with 15 additional carboxylic acids, which were mostly cinnamic acid derivatives with larger substituents. We subsequently identified M10, which is a macrocycle based on the original scaffold and acylated with acid 120 that displaced the fluorescent probe used, F-M8, to 84% from MDM2 at 750 nM, and more efficiently than the parent compounds, M8 and M9 (FIG. 18c). […] With the fluorescein conjugate, we also performed a competition experiment with nutlin-3a that binds to a defined hydrophobic pocked of MDM2 (B. Anil et al., Acta Crystallogr. Sect. D Biol. Crystallogr. 2013, 69, 1358-1366) and is a precursor of nutlin-based clinical candidates.

The term IC50 denotes the concentration that inhibits the measured activity by half. A word on the Kd: it is the equilibrium constant for the complex coming apart. The Km is the concentration of substrate that gives half-maximal velocity. The term Ki denotes a measure of affinity in units of concentration, obtained from inhibition or displacement. Lower therefore signals a stronger hold on the target.

T1 sequence (Q00987 whole entry): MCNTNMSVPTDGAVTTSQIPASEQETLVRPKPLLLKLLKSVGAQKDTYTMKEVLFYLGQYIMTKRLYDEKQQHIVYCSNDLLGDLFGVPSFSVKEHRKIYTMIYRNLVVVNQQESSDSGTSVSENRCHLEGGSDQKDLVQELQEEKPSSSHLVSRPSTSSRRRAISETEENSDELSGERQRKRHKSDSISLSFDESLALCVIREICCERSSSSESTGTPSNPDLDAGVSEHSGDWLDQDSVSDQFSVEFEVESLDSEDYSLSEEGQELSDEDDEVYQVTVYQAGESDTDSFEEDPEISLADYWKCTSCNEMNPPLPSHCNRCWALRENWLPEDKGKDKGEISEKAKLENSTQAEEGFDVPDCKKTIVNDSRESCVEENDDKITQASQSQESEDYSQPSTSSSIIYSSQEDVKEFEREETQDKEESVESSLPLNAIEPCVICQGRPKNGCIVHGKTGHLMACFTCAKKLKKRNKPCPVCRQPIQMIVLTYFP

In the case of `O=C(/C=C/c1ccccc1)NC[C@@H]1NC(=O)[C@H]2CCCN(C2)C(=O)CCSSCCNC(=O)[C@H](Cc2c[nH]c3ccccc23)NC1=O` [M8], in assay [1], the IC50 was approximately 1000 nM. In assay [2], this molecule showed a Kd of 169 ± 93 nM.

Consider `Cc1cc(=O)oc2cc(NC(=O)[C@H](CCCNC(=N)N)NC(=O)CNC(=O)CNC(=O)OCc3ccccc3)ccc12` [Cbz-G-G-R-AMC], for which the Km in assay [3] stood at 305 ± 46 µM.

As for `O=C(NC[C@@H]1NC(=O)[C@H]2CCCN(C2)C(=O)CCSSCCNC(=O)[C@H](Cc2c[nH]c3ccccc23)NC1=O)c1ccc(Cl)cc1` [M7], the IC50 in assay [1] is approximately 1000 nM. In assay [2], this molecule registered a Kd of 550 ± 190 nM.

Regarding Mpa-Tyr-II-Pro-Mea, the Ki in assay [4] (HPLC-purified disulfide cyclized peptide) worked out at 13 ± 1 µM. In addition, the “reduction of thrombin activity” value in assay [4] (crude cyclic peptide, compound concentration of around 10 μM) was found to be 52%.

On to `O=C(NC[C@@H]1NC(=O)[C@H]2CCCN(C2)C(=O)CCSSCCNC(=O)[C@H](Cc2c[nH]c3ccccc23)NC1=O)c1ccc(Cl)s1` [M6], for which the IC50 in assay [1] is approximately 1000 nM. In assay [2], the Kd came out at 600 ± 300 nM.

For nutlin-3a, the “competition with fluorescein conjugate of M10 for MDM2” value in assay [5] is recorded as “did not compete”.
